PMC9602792, “Preclinical evaluation of the epithelial sodium channel inhibitor AZD5634 and implications on human translation” (American Journal of Physiology - Lung Cellular and …, 2022)

Key:
Cftr^−/− rats = assay: μOCT of trachea and lungs excised en bloc from Cftr-knockout rats treated in vivo; set-up: species or system rat; conditions: seven 200-μL doses of 54 µM by oropharyngeal aspiration over 4 days; not significant vs vehicle
Protocol: μOCT imaging and analysis were conducted in vitro and ex vivo as detailed in previous publications ([2], [39]–[41]). Briefly, the μOCT system uses light reflectance to produce video-rate (40 frames/s and 512 lines/frame), high-resolution images (1 micron) captured in real-time and without disruption of sample tissue, permitting simultaneous interrogation of key parameters of airway microanatomy without the addition of exogenous particles or dyes. Following imaging of HBEC cultures and of excised trachea and lungs, images were assessed to obtain quantitative measurements of mucociliary transport (MCT) rate, ASL depth, and ciliary beat frequency (CBF). MCT rates were calculated by analyzing the distance traveled by native particles in the mucus layer over time across multiple frames. Direct geometric measurement of layer thickness (Image J software) yielded ASL depths. CBF was determined by using custom code developed in Matlab (Mathworks, Natick, MA) to quantify the reflectance of beating cilia by Fourier analysis. […] The results for each trachea and lung sample reflected an average of measurements from images obtained from a minimum of six controlled points along the tracheal length, using the cranial end as a reference.
Six-month-old Cftr-knockout rats (female and male) were treated with seven 200-μL doses of either 54 µM AZD5634 or vehicle control, delivered by oropharyngeal aspiration, over 4 days (two doses daily for 3 days and a single dose on the 4th day, 2 h before euthanasia). Rats were euthanized by intraperitoneal injection of pentobarbital sodium (Fatal Plus, 100 mg/kg), and trachea and lungs were excised en bloc and dissected along the dorsal surface from the larynx to the terminal end of the main stem bronchi. […]
Descriptive statistics were calculated and means compared using unpaired or paired t tests, or ANOVA, with post hoc analyses conducted for multiple comparisons where appropriate. […]

healthy sheep = assay: Mucociliary clearance (99mTc-sulfur colloid) in healthy sheep after nebulized drug; format: in vivo
Description: Twenty-one adult female Florida native sheep (37–54 kg, Fair Meadow Sheep) were used in the present study, once or twice with a washout of at least 1 wk between experiments. Animals were restrained in an upright position in a specialized body harness in modified carts. The head of the animal was immobilized, and after local anesthesia of the nasal passage was induced with 2% lidocaine, the animals were nasally intubated with a standard endotracheal tube (7.5 mm diameter, Mallinckrodt, St. Louis, MO). A flexible bronchoscope was used to guide the tube and verify its position in the trachea. After intubation, the animals were allowed to rest for ∼20 min before administration of any agent.
Nebulized drug or placebo was given as an aerosol where 3 mL volume (compound in 10% EtOH:90% saline) was delivered at a tidal volume of 300 mL. To maximize central deposition in the airways, a dosimeter was used to deliver the compound. The nebulizer was connected to the dosimeter system consisting of a solenoid valve and a source of compressed air (20 psi). The output of the nebulizer was connected to a T-piece, with one end attached to a respirator (Harvard Apparatus Inc., Holliston, MA). The system was activated for 1 s at the onset of the inspiratory cycle of the respirator, which was set at an inspiratory/expiratory ratio of 1:1 and a rate of 20 breaths/min. To evaluate the effect of repeated dosing, AZD5634 was given twice daily for 4 days and MCC was measured 8 h after the 7th dose.
MCC rate was measured by means of aerosolized technetium-labeled sulfur colloid (^99mTC-SC) and nebulized via the same dosimeter system as for the drug administration. […] Aerosol ^99mTC-SC was generated using an Air Life nebulizer (CareFusion, Yorba Linda, CA). Approximately 20 mCi of ^99mTC-SC in a total of 2 mL of sterile saline was placed in the nebulizer. A tidal volume of 500 mL was used to deliver the ^99mTC-SC over 3 min.
Blood was kept on ice until centrifuged (4,000 g, 5 min, 4°C) and plasma (approximately 2 mL) was transferred to two Eppendorf tubes per sample and frozen at −20°C until analyzed. Sodium and potassium concentrations were analyzed at Mount Sinai Medical Center immediately after sampling and before centrifugation (IRMA TruPoint Analysis System). The plasma samples for analysis of drug concentration were shipped on dry ice to AstraZeneca R&D, Mölndal, Gothenburg and analyzed by means of LC-MSMS (001–04 Method for Blood Plasma Analysis).
Rat electrolyte data were analyzed by means of repeated-measures ANCOVA (SAS v.9).

[1] = tested on: sodium/hydrogen exchangers; set-up: method as in PMID 33974881; conditions: specificity unknown; cited from earlier work

## AZD5634
Cftr^−/− rats
  ASL depth: 15.8 ± 2.1 µm
  MCT rate: 0.3 ± 0.1 mm/min
  ciliary beating (CBF): 7.9 ± 0.7 Hz
Healthy sheep; 3 μg/kg bid for 4 days (7 doses), MCC 8 h after 7th dose
  MCC effect after repeated administration: effect magnitude was maintained compared with single-dose studies
Healthy sheep; 12 μg/kg given 0, 4, 8, 12, 24 h before 99mTc
  duration of MCC effect: retained for 8 h, with approximately half left at 12 h and another half of the remaining effect gone by 24 h
Healthy sheep; dose-response 1–330 µg/kg, healthy sheep
  dose giving max effect on MCC: 0.12 mg/kg
Healthy sheep; dose-response, healthy sheep
  dose giving max efficacy on MCC: 0.12 mg/kg
Healthy sheep; nebulized 1–330 µg/kg, given just before 99mTc
  effect on MCC: dose-dependent effect on MCC
Healthy sheep; normal sheep in vivo
  peak effect on mucus clearance (augmentation): 30%
[1]
  effect on sodium/hydrogen exchangers: blocks sodium/hydrogen exchangers
